Results reported in patent US20230227466A1, “SUBSTITUTED THIENOPYRIMIDINES THAT INTERACT WITH THE RAS SUPERFAMILY FOR THE TREATMENT OF CANCERS, INFLAMMATORY DISEASES, RASOPATHIES, AND FIBROTIC DISEASE” (SHY Therapeutics, LLC, priority 2020, published 2023).
Read-outs that look alike come from different tables or passages of the source.

Experiments:
KRas G12C mutant = molecular target: T1, KRas G12C mutant (Homo sapiens, UniProt P01116, G12C); assay: Ras GTP binding domain inhibition assay (labeled-GTP competition, cell-free)
T1 construct: made in house
How it was run: (§1)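 Labeled-GTP competition read out as bound Cy3/Cy5-GTP fluorescence after washes, with 100 nM tracer for 45 min at RT. Before tracer, compounds at 20 μM, or a dilution series for IC50, sat 3 h at RT on the Ni-immobilized His-tagged GTPase. Sos GEF (10-30 μg/mL) was optionally present for the last hour.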

KRas G12D mutant = molecular target: T2, KRas G12D mutant (Homo sapiens, UniProt P01116, G12D); assay: as above
T2 construct: made in house
How it was run: as §1

[1] = tested on: MIA-PaCa-2 pancreatic cancer cell line (KRAS G12C); assay: Cell proliferation assay (CellTiter 96 Aqueous One); format: cell-based; conditions: Homo sapiens; for IC50: MIA PaCa-2, MIA PaCa-2; for inhibition at 10 µM: MIA PaCa-2, read-out: % inh cell proliferation (10 μM) in MIA PaCa-2
How it was run: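 Percent inhibition of proliferation is derived from MTS absorbance data. Cells seeded at 2000–5000 per well were grown overnight before treatment. Compounds, at 10 μM final or in dilution series, stayed on cells for 2–4 days in medium containing 10% FBS and 0.3% DMSO.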

Rac-1 = Rac-1 (Homo sapiens, UniProt P63000); assay: Ras GTP binding domain inhibition assay (labeled-GTP competition, cell-free); design: made in house
How it was run: as §1

KRas wild type = KRas wild type (Homo sapiens, UniProt P01116); assay: as above; design: made in house
How it was run: as §1

Rho-A = Rho-A (Homo sapiens, UniProt P61586); assay: as above; design: made in house
How it was run: as §1

[2] = tested on: Akt phosphorylation in Panc-1 cells; assay: Western AKT cell-based phosphorylation assay; design: species or system human; conditions: at 10 μM, values in brackets < > are activation %, not inhibition
How it was run: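 Panc-1 cells starved overnight in 0.5% FBS, exposed to compound at 10 μM (0.3% DMSO) for 6 h at 37° C, then stimulated with 1.5 ng/ml EGF for 15 min. Lysates probed by western blot with anti-phospho-Akt (Ser473), equal protein loading checked by Ponceau S.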

[3] = with SOS, read-out: KRas G12C mutant + SOS: % inh.
[4] = without SOS, read-out: KRas G12C mutant: % inh.
[5] = with SOS, read-out: KRas G12D mutant + SOS: % inh.
[6] = without SOS, read-out: KRas G12D mutant: % inh.
[7] = with SOS, read-out: Rac-1 + SOS: % inh.
[8] = without SOS, read-out: Rac-1: % inh.
[9] = with SOS, read-out: KRas wild type + SOS: % inh.
[10] = without SOS, read-out: KRas wild type: % inh.
[11] = with SOS, read-out: Rho-A + SOS: % inh.
[12] = without SOS, read-out: Rho-A: % inh.

Structure (SMILES) | inhibition at 20 µM (KRas G12C mutant; [3]) [%] | inhibition at 20 µM (KRas G12C mutant; [4]) [%] | inhibition at 20 µM (KRas G12D mutant; [5]) [%] | inhibition at 20 µM (KRas G12D mutant; [6]) [%] | IC50 [1] [µM] | inhibition at 20 µM (Rac-1; [7]) [%] | inhibition at 20 µM (Rac-1; [8]) [%] | inhibition at 20 µM (KRas wild type; [9]) [%] | inhibition at 20 µM (KRas wild type; [10]) [%] | inhibition at 20 µM (Rho-A; [11]) [%] | inhibition at 20 µM (Rho-A; [12]) [%] | inhibition at 10 µM [1] [%] | % inh of AKT phosphorylation in PANC-1 [2]
O=C(Nc1ccccn1)c1nc(O)c2scc(-c3ccccn3)c2n1 [Compound 24, 4-Hydroxy-N,7-di(pyridin-2-yl)thieno[3,2-d]pyrimidine-2-carboxamide] | 1 to 25 | 1 to 25 | 0 | 1 to 25 | > 10 | 1 to 25 | 0 | 1 to 25 | 1 to 25 | 1 to 25 | 1 to 25 | 1 to 25 | 0 (0% inhibition)
Cn1ccnc1-c1nc(O)c2scc(-c3ncccc3F)c2n1 [Compound 30, 7-(3-Fluoropyridin-2-yl)-2-(1-methyl-1H-imidazol-2-yl)thieno[3,2-d]pyrimidin-4-ol] | 76 to 100 | 51 to 75 | 51 to 75 | 51 to 75 | > 10 | 51 to 75 | 51 to 75 | 76 to 100 | 76 to 100 | 76 to 100 | 76 to 100 | 26 to 50 | 0 (0% inhibition)
COCCNc1nc(-c2nccn2C)nc2sc(-c3ccn(C(C)C)n3)c(C)c12 [Compound 35, 6-(1-Isopropyl-1H-pyrazol-3-yl)-N-(2-methoxyethyl)-5-methyl-2-(1-methyl-1H-imidazol-2-yl)thieno[2,3-d]pyrimidin-4-amine] | 76 to 100 | 76 to 100 | 76 to 100 | 76 to 100 | 5 to 10 | 76 to 100 | 76 to 100 | 76 to 100 | 76 to 100 | 76 to 100 | 76 to 100 | 76 to 100 | 0 (0% inhibition)

The next lines start with results.

inhibition at 20 µM (KRas G12C mutant; [3]) [%] | inhibition at 20 µM (KRas G12C mutant; [4]) [%] | inhibition at 20 µM (KRas G12D mutant; [5]) [%] | inhibition at 20 µM (KRas G12D mutant; [6]) [%] | IC50 [1] [µM] | inhibition at 20 µM (Rac-1; [7]) [%] | inhibition at 20 µM (Rac-1; [8]) [%] | inhibition at 20 µM (KRas wild type; [9]) [%] | inhibition at 20 µM (KRas wild type; [10]) [%] | inhibition at 20 µM (Rho-A; [11]) [%] | inhibition at 20 µM (Rho-A; [12]) [%] | Structure (SMILES) | inhibition at 10 µM [1] [%] | % inh of AKT phosphorylation in PANC-1 [2]
76 to 100 | 76 to 100 | 76 to 100 | 76 to 100 | 5 to 10 | 76 to 100 | 76 to 100 | 51 to 75 | 76 to 100 | 76 to 100 | 76 to 100 | Cc1sc2c(O)nc(-c3ccccn3)nc2c1-c1ccccn1 [Compound 26, 6-Methyl-2,7-di(pyridin-2-yl)thieno[3,2-d]pyrimidin-4-ol] | 51 to 75 | 0 (0% inhibition)
76 to 100 | 51 to 75 | 76 to 100 | 26 to 50 | < 1 | 26 to 50 | – | 76 to 100 | 26 to 50 | 51 to 75 | 51 to 75 | CO[C@@H]1CC[C@H](Nc2nc(-c3nccn3C)nc3sc(-c4ccn(C(C)C)n4)c(C)c23)C1 [Compound 31, 6-(1-Isopropyl-1H-pyrazol-3-yl)-N-((1S,3R)-3-methoxycyclopentyl)-5-methyl-2-(1-methyl-1H-imidazol-2-yl)thieno[2,3-d]pyrimidin-4-amine] | 76 to 100 | 0 (0% inhibition)
76 to 100 | 51 to 75 | 76 to 100 | 26 to 50 | < 1 | 26 to 50 | 26 to 50 | 76 to 100 | 76 to 100 | 51 to 75 | 51 to 75 | CO[C@H]1CC[C@@H](Nc2nc(-c3nccn3C)nc3sc(-c4ccn(C(C)C)n4)c(C)c23)C1 [Compound 32, 6-(1-Isopropyl-1H-pyrazol-3-yl)-N-((1R,3S)-3-methoxycyclopentyl)-5-methyl-2-(1-methyl-1H-imidazol-2-yl)thieno[2,3-d]pyrimidin-4-amine] | 76 to 100 | 0 (0% inhibition)
